In PubChem BioAssay AID588374 (Southern Research Specialized Biocontainment Screening …, 2011):
Values joined by “and” are separate entries in the source; they are usually repeats but may differ in a detail not shown here. Identical values can stand only once. Results filed as inconclusive are left out. Active and inactive are the calls of the source.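 Rule for the calls: active = viability below 70% at one or more tested concentrations in every replicate; inactive = viability above 70% at all doses, or replicates disagree.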

Legend:
[1] = host cell viability loss, Vero E6 – synthesized analogs, extended characterization 1, cytotoxicity control for West Nile virus antiviral project, SAR follow-up (AID 588374); details: Vero E6 viability, CellTiter-Glo luminescence, 72 h
[2] = test system: Vero E6 viability, CellTiter-Glo luminescence, 72 h; experiment: as above

SMILES	viability ([1]; at 100 µM (top of the series))	CC50 [2] [µM]	other results
Cc1nc2cc(NC(=O)CSc3nc4ccccc4c(=O)n3-c3ccccc3)ccc2s1	75.1% (inactive)	–	–
O=C(CSc1nc2ccccc2c(=O)n1-c1cc(Cl)cc(Cl)c1)Nc1cccc2ccccc12	83.8% (inactive)	–	–
O=C(CSc1nc2ccccc2c(=O)n1-c1ccc(F)c(F)c1)Nc1nccs1	–	–	viability ([1]; at 50 µM (top of the series)): 74.1% (inactive)
O=C(CSc1nc2ccccc2c(=O)n1-c1ccccc1)Nc1ccc2c(c1)CCC2	76.9% (inactive) and 77% (inactive)	–	–
O=C(CSc1nc2ccccc2c(=O)n1-c1ccccc1)NC1CCc2ccccc21 (configuration not stated)	75.5% (inactive)	–	–
O=C(CSc1nc2ccccc2c(=O)n1-c1ccccc1)Nc1nc(-c2ccccc2)cs1	–	–	viability ([1]; at 50 µM (top of the series)): 77.7% (inactive)
O=C(CSc1nc2cccc(F)c2c(=O)n1-c1ccccc1)Nc1ccc2ncsc2c1	–	–	viability ([1]; at 50 µM (top of the series)): 86.2% (inactive)
O=C(CSc1nc2ccccc2c(=O)n1-c1ccc(Cl)c(Cl)c1)Nc1ccc2c(c1)OCO2	74.2% (inactive)	–	–
O=C(CCCCSc1nc2cccc(F)c2c(=O)n1-c1ccc(Cl)c(F)c1)Nc1ccc2c(c1)CCC2	81.9% (inactive)	–	–
O=C(CSc1nc2ccccc2c(=O)n1-c1cc(F)c(F)c(F)c1)NC1CCc2ccccc21 (configuration not stated)	–	36	–
O=C(CCCSc1nc2ccccc2c(=O)n1-c1ccccc1)Nc1ccc2c(c1)CCC2	85.5% (inactive)	–	–
O=C(CSc1nc2ccccc2c(=O)n1-c1ccccc1)Nc1cccc2c1CCC2	–	37.3	–
O=C(CSc1nc2ccccc2c(=O)n1-c1ccc(F)c(Cl)c1)Nc1cccc2ccccc12	75.5% (inactive)	–	–
O=C(CCCSc1nc2cccc(F)c2c(=O)n1-c1ccc(Cl)c(F)c1)Nc1ccc2c(c1)CCC2	82.9% (inactive)	–	–
O=C(CSc1nc2ccccc2c(=O)n1-c1cc(Cl)cc(Cl)c1)Nc1cccc2c1CCC2	–	17.5	–
O=C(CSc1nc2ccccc2c(=O)n1-c1ccccc1)Nc1nc2cc(Cl)ccc2o1	–	31.7	–
Cc1nc2cc(NC(=O)CSc3nc4ccccc4c(=O)n3-c3ccc(Cl)c(Cl)c3)ccc2s1	–	18	–
O=C(CSc1nc2ccccc2c(=O)n1-c1ccc(Cl)c(Cl)c1)NC1CCc2ccccc21 (configuration not stated)	–	–	viability ([1]; at 50 µM (top of the series)): 73.8% (inactive)
O=C(CCCSc1nc2cccc(F)c2c(=O)n1-c1ccc(F)c(F)c1)Nc1ccc2c(c1)CCC2	78% (inactive)	–	–
O=C(CCSc1nc2ccccc2c(=O)n1-c1ccc(F)c(Cl)c1)Nc1ccc2c(c1)CCC2	77.6% (inactive)	–	–
O=C(CSc1nc2ccccc2c(=O)n1-c1ccc(F)c(F)c1)NC1CCCc2ccccc21 (configuration not stated)	76.2% (inactive)	–	–
O=C(CCSc1nc2cccc(F)c2c(=O)n1-c1ccccc1)Nc1ccc2c(c1)CCC2	–	52.6	–
Cc1cnc(NC(=O)CSc2nc3ccccc3c(=O)n2-c2ccc(Cl)c(Cl)c2)s1	–	28.8	–
O=C(CCCSc1nc2ccccc2c(=O)n1-c1ccc(Cl)c(Cl)c1)Nc1ccc2c(c1)CCC2	80.6% (inactive)	–	–

SMILES	viability ([1]; at 100 µM (top of the series))	CC50 [2] [µM]	other results
Cn1c(NC(=O)CSc2nc3ccccc3c(=O)n2-c2ccc(Cl)c(Cl)c2)nc2ccccc21	–	–	viability ([1]; at 50 µM (top of the series)): 74.2% (inactive)
O=C(CSc1nc2ccccc2c(=O)n1-c1ccccc1)Nc1ccc2ncsc2c1	88.3% (inactive)	–	–
O=C(CSc1nc2ccccc2c(=O)n1-c1cc(F)c(F)c(F)c1)Nc1ccc2c(c1)OCO2	–	32.8	–
O=C(CSc1nc2ccccc2c(=O)n1-c1ccc(Cl)c(Cl)c1)Nc1nccs1	–	14.9	–
O=C(CSc1nc2ccccc2c(=O)n1-c1ccccc1)NC1Cc2ccccc2C1	75.3% (inactive)	–	–
O=C(CCCCSc1nc2ccccc2c(=O)n1-c1ccccc1)Nc1ccc2c(c1)CCC2	–	50	–
O=C(COc1nc2ccccc2c(=O)n1-c1ccccc1)Nc1ccc2c(c1)CCC2	71.6% (inactive)	–	–
O=C(CCCCSc1nc2ccccc2c(=O)n1-c1ccc(F)c(Cl)c1)Nc1ccc2c(c1)CCC2	–	93.9	–
O=C(CSc1nc2ccccc2c(=O)n1-c1ccc(Cl)c(Cl)c1)Nc1ncc([N+](=O)[O-])s1	–	21.7	–
O=C(CSc1nc2ccccc2c(=O)n1-c1cc(Cl)cc(Cl)c1)Nc1nccs1	–	18	–
O=C(CSc1nc2ccccc2c(=O)n1-c1ccc(Cl)c(Cl)c1)N1CCCCCC1	74.5% (inactive)	–	–
Cn1c(NC(=O)CSc2nc3ccccc3c(=O)n2-c2ccccc2)nc2ccccc21	–	16.4	–
O=C(CCCSc1nc2cccc(F)c2c(=O)n1-c1ccc(F)c(Br)c1)Nc1ccc2c(c1)CCC2	81.7% (inactive)	–	–
O=C(CSc1nc2cccc(F)c2c(=O)n1-c1ccccc1)Nc1ccc2c(c1)OCO2	76.3% (inactive)	–	–
O=C(CSc1nc2ccccc2c(=O)n1-c1ccccc1)Nc1ccc2c(c1)OCO2	–	57.3	–
O=C(CSc1nc2ccccc2c(=O)n1-c1ccc(Cl)c(Cl)c1)Nc1nc2cc(Cl)ccc2o1	–	18.8	–
O=C(CSc1nc2ccccc2c(=O)n1-c1ccccc1)Nc1nccs1	96.3% (inactive)	–	–
O=C(CSc1nc2ccccc2c(=O)n1-c1ccc(Cl)c(Cl)c1)Nc1ccc2c(c1)CCC2	70.3% (inactive)	–	–
O=C(CSc1nc2ccccc2c(=O)n1-c1ccc(Cl)c(Cl)c1)Nc1ccc2scnc2c1	75.5% (inactive)	–	–
O=C(CSc1nc2ccccc2c(=O)n1-c1ccccc1)Nc1nc2ccc([N+](=O)[O-])cc2s1	–	40.5	–
O=C(CSc1nc2ccccc2c(=O)n1-c1ccc(Cl)c(Cl)c1)Nc1cccc2c1CCC2	–	–	viability ([1]; at 50 µM (top of the series)): 76.2% (inactive)
O=C(CCCCSc1nc2ccccc2c(=O)n1-c1cc(F)c(F)c(F)c1)Nc1ccc2c(c1)CCC2	70.2% (inactive)	–	–
O=C(CSc1nc2ccccc2c(=O)n1-c1cc(F)c(F)c(F)c1)Nc1ccc2c(c1)CCC2	–	–	viability ([1]; at 50 µM (top of the series)): 76.3% (inactive)
